Laboratory results published in patent publication US20230100429A1, “LIVE-PATHOGEN-MIMETIC NANOPARTICLES BASED ON PATHOGEN CELL WALL SKELETON, AND PRODUCTION METHOD THEREOF” (priority 2020, published 2023).

Assay: Toxicity evaluation, plasma AST and ALT after subcutaneous injection
Assay type: in vivo, C57BL/6 mouse
Details: 25 μg resiquimod, over time, FIG. 6
Method: To evaluate the toxicity of a live pathogen-mimetic nano-molecule, a live pathogen-mimetic nano-molecule, a CWS-nanodispersion, resiquimod (R848; free drug), or a mixture of a CWS-nanodispersion and resiquimod (R848; free drug), which was added to a 50 μL of phosphate buffered saline (PBS) to have a resiquimod concentration of 25 μg, was subcutaneously injected into the right flank of a C57BL/6 mouse. Then, blood was extracted from the mouse at fixed time intervals and centrifuged at 12,000 rpm to isolate plasma. Then, the concentrations of aspartate transaminase (AST) and alanine transaminase (ALT) contained in the isolated plasma were measured using ELISA.

CCOCc1nc2c(N)nc3ccccc3c2n1CC(C)(C)O [resiquimod]
plasma ALT concentration (hepatotoxicity indicator): initially increased
plasma AST concentration (hepatotoxicity indicator): initially increased
